What was measured:
[1] = tested on: MC903 induced atopic dermatitis in mice; assay: Murine prophylactic model of atopic dermatitis induced by topical application of MC903; type: in vivo, BALB/cN mice or CD1/Swiss mice; details: 10 mg/kg b.i.d., versus disease vehicle group
Source text: 5.5. Murine Prophylactic Model of Atopic Dermatitis Induced by Topical Application of MC903
Methylcellulose 0.5% was obtained from VWR (cat no. AX021233). MC903 (calcipotriol) was obtained from Tocris Bioscience (cat no. 2700/50). ProSense® 680 was obtained from PerkinElmer (cat no. NEV10003). RNAlater® was obtained from Ambion (cat no. AM7021). Imalgene® 1000 (Merial) and Rompun® 2% (Bayer) were obtained from Centravet (cat no. IMA004-6827812 and ROM001-6835444).
BALB/cN mice (female, 18-20 g body weight) or CD1/Swiss mice (female, 24-26 g body weight) were obtained from Janvier Labs (France). Mice were kept on a 12 h light/dark cycle (07:00-19:00). Temperature was maintained at 22±2° C., food and water were provided ad libitum. […]
The thickness of both ears was measured (after anaesthesia induced by isoflurane inhalation) at initiation of the study, every other day and at sacrifice using a thickness gage (Mitutoyo, Absolute Digimatic, 547-321).
Body weight was assessed at initiation of the study, every other day and at sacrifice.
On D4, mice from all groups receive ProSense® 680 probe (0.8 nmol/10 g, IP). […] Granulocyte infiltration was measured using in vivo molecular imaging (Bruker In-Vivo Xtreme imaging system, excitation wavelength: 630 nm, emission wavelength: 700 nm, acquisition time: 5 seconds). […]
For each readout, mean and sem were calculated. […]

mouse CIA model = assay: Mouse collagen induced arthritis (CIA) model; type: in vivo, DBA1/J mice; details: 3, 10 and 30 mg/kg b.i.d., versus disease vehicle group
Protocol: Completed Freund's adjuvant (CFA) and incomplete Freund's adjuvant (IFA) were purchased from Difco. Bovine collagen type II (CII), lipopolysaccharide (LPS), and Enbrel was obtained from Chondrex (Isle d'Abeau, France); Sigma (P4252, L'Isle d'Abeau, France), Whyett (25 mg injectable syringe, France) Acros Organics (Palo Alto, Calif.), respectively. All other reagents used were of reagent grade and all solvents were of analytical grade.
DBA1/J mice (male, 7-8 weeks old) were obtained from Charles River Laboratories (France). Mice were kept on a 12 h light/dark cycle (07 h 00-19 h 00). Temperature was maintained at 22° C., and food and water were provided ad libitum.
5.1.3. Collagen Induced Arthritis (CIA)
One day before the experiment, CII solution (2 mg/mL) was prepared with 0.05 M AcOH and stored at 4° C. Just before the immunization, equal volumes of adjuvant […] and CII were mixed by a homogenizer in a pre-cooled glass bottle in an ice water bath. Extra adjuvant and prolonged homogenization may be required if an emulsion was not formed. […]
The therapeutic effects of the compounds were tested in the mouse CIA model. […] Body weight and clinical score, were recorded twice a week. […]
Arthritis is scored according to the method of (Khachigian, 2006; Lin et al., 2007; Nishida et al., 2004). […]
For each readout, mean and sem are calculated. […]

COc1cn2nc(CCC(C)(C)O)cc2cc1NC(=O)c1cccn(C2CC2)c1=O [Compound 1, 1-cyclopropyl-N-[2-(3-hydroxy-3-methylbutyl)-6-methoxypyrazolo[1,5-a]pyridin-5-yl]-2-oxopyridine-3-carboxamide]
statistically significant effect: effect on ear thickening at D8 [1] | effect on granulocyte infiltrate [1] | effect on bone erosion Larsen Score (mouse CIA model) | effect on clinical score (mouse CIA model)

Reference: patent US20220218679A1, “NOVEL COMPOUNDS AND PHARMACEUTICAL COMPOSITIONS THEREOF FOR THE TREATMENT OF INFLAMMATORY DISORDERS” (Galapagos NV, priority 2019, published 2022)
